Tested on: NCI-H2122 cells
Test: NCI-H2122 CTG proliferation assay (120 h) (NSCLC, G12C)
Type: cell-based
Settings: Homo sapiens
In short: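 NCI-H2122 cells (KRAS G12C NSCLC), 200 per well in RPMI with 10% FCS, were dosed with compound on day 1 and incubated 120 h at 37 °C. Viability was read by CellTiter-Glo luminescence as percent of DMSO control, and IC50 was fitted with a four-parameter model.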

| IC50 [nM] | Structure (SMILES) |
| --- | --- |
| 3280 | C[C@H](Oc1cc(N2CCNC[C@]23CCOC3)nc(-c2onc3c2CCC[C@@]32CCCc3sc(N)c(C#N)c32)n1)[C@@H]1CCCN1C [I-12] |
| 6470 | C[C@H](Oc1cc(N2CCNC[C@@]23CCOC3)nc(-c2onc3c2CCC[C@@]32CCCc3sc(N)c(C#N)c32)n1)[C@@H]1CCCN1C [I-13] |
| 2870 | C[C@H](Oc1cc(-n2cncc3ccnc2-3)nc(-c2onc3c2CCC[C@@]32CCCc3sc(N)c(C#N)c32)n1)[C@@H]1CCCN1C [I-14] |
| 4230 | CO[C@@H]1C[C@@H]([C@H](C)Oc2cc(-c3cnn(C)n3)nc(-c3onc4c3CCC[C@@]43CCCc4sc(N)c(C#N)c43)n2)N(C)C1 [I-17] |
| 1760 | C[C@H](Oc1cc(-n2cncn2)nc(-c2onc3c2CCC[C@@]32CCCc3sc(N)c(C#N)c32)n1)[C@@H]1CCCN1C [I-18] |
| 2710 | C[C@H](Oc1cc(N2Cc3cnn(C)c3C2)nc(-c2onc3c2CCC[C@@]32CCCc3sc(N)c(C#N)c32)n1)[C@@H]1CCCN1C [I-19] |
| 2690 | C[C@H](Oc1cc(-n2cnc(C(=O)N(C)C)c2)nc(-c2noc3c2CCC[C@@]32CCCc3sc(N)c(C#N)c32)n1)[C@@H]1CCCN1C [II-126] |
| 189 | C[C@H](Oc1cc(-c2ccn([C@H]3CCOC3)n2)nc(-c2noc3c2CCC[C@@]32CCCc3sc(N)c(C#N)c32)n1)[C@@H]1CCCN1C [II-127] |
| 361 | C[C@H](Oc1cc(-c2ccn(Cc3ncco3)n2)nc(-c2noc3c2CCC[C@@]32CCCc3sc(N)c(C#N)c32)n1)[C@@H]1CCCN1C [II-128] |
| 198 | C[C@H](Oc1cc(-c2ccn(C[C@H]3CCOC3)n2)nc(-c2noc3c2CCC[C@@]32CCCc3sc(N)c(C#N)c32)n1)[C@@H]1CCCN1C [II-129] |
| 672 | C[C@H](Oc1cc(-n2nccc2-c2ccncc2)nc(-c2noc3c2CCC[C@@]32CCCc3sc(N)c(C#N)c32)n1)[C@@H]1CCCN1C [II-131] |
| 188 | C[C@H](Oc1cc(-n2cc(C(=O)N(C)C)nn2)nc(-c2noc3c2CCC[C@@]32CCCc3sc(N)c(C#N)c32)n1)[C@@H]1CCCN1C [II-132] |
| 4120 | C[C@H](O)Cn1ncc(-c2cc(O[C@@H](C)[C@@H]3CCCN3C)nc(-c3noc4c3CCC[C@@]43CCCc4sc(N)c(C#N)c43)n2)n1 [II-134] |
| 8240 | C[C@H]1CNCCCN1c1cc(-c2ccn(C)n2)nc(-c2noc3c2CCC[C@@]32CCCc3sc(N)c(C#N)c32)n1 [II-140] |
| 2830 | C[C@H](Oc1cc(-n2cc3c(n2)CCN(C)C3)nc(-c2noc3c2CCC[C@@]32CCCc3sc(N)c(C#N)c32)n1)[C@@H]1CCCN1C [II-141] |
| 10500 | C[C@H]1CNCCCN1c1cc(-n2ccnc2)nc(-c2noc3c2CCC[C@@]32CCCc3sc(N)c(C#N)c32)n1 [II-142] |

| IC50 [nM] | Structure (SMILES) |
| --- | --- |
| 3690 | C[C@H](Oc1cc(-c2ccn(C)n2)nc(-c2noc3c2CCC[C@@]32CCCc3sc(N)c(C#N)c32)n1)[C@@H]1C[C@H](F)CN1C [II-144] |
| 2550 | C[C@H](Oc1cc(N2CCN(C)C3(CC3)C2)nc(-c2noc3c2CCC[C@@]32CCCc3sc(N)c(C#N)c32)n1)[C@@H]1C[C@@H](F)CN1C [II-149] |
| 2510 | C[C@H](Oc1cc(N2CCNC3(COC3)C2)nc(-c2noc3c2CCC[C@@]32CCCc3sc(N)c(C#N)c32)n1)[C@@H]1C[C@@H](F)CN1C [II-150] |
| 3580 | C[C@H](Oc1cc(N2CCN(C)C3(CCOC3)C2)nc(-c2noc3c2CCC[C@@]32CCCc3sc(N)c(C#N)c32)n1)[C@@H]1C[C@@H](F)CN1C (stereo partly drawn) [II-151] |
| 929 | C[C@H](Oc1nc(-c2noc3c2CCC[C@@]32CCCc3sc(N)c(C#N)c32)nc(N2CCNC3(CC3)C2)c1F)[C@@H]1C[C@@H](F)CN1C [II-155] |
| 4850 | C[C@@H]1CN(c2cc(O[C@@H](C)[C@@H]3CCCN3C)nc(-c3noc4c3CCC[C@@]43CCCc4sc(N)c(C#N)c43)n2)CCN1 [II-161] |
| 3320 | C[C@H](Oc1cc(N2CCN[C@@H](C)C2)nc(-c2noc3c2CCC[C@@]32CCCc3sc(N)c(C#N)c32)n1)[C@@H]1CCCN1C [II-162] |
| 4500 | C[C@H](Oc1cc([C@H]2CCNC2)nc(-c2noc3c2CCC[C@@]32CCCc3sc(N)c(C#N)c32)n1)[C@@H]1CCCN1C [II-163] |
| 4580 | C[C@H](Oc1cc(C2=CCNCC2)nc(-c2noc3c2CCC[C@@]32CCCc3sc(N)c(C#N)c32)n1)[C@@H]1CCCN1C [II-164] |
| 1250 | CC(C)[C@@H]1CN(c2cc(O[C@@H](C)[C@@H]3CCCN3C)nc(-c3noc4c3CCC[C@@]43CCCc4sc(N)c(C#N)c43)n2)CCN1 [II-166] |
| 9790 | C[C@H](Oc1cc(N2C[C@@H]3[C@@H](N)[C@@H]3C2)nc(-c2noc3c2CCC[C@@]32CCCc3sc(N)c(C#N)c32)n1)[C@@H]1CCCN1C [II-167] |
| 1770 | C[C@H](Oc1cc(-n2cc3c(n2)CNC3)nc(-c2noc3c2CCC[C@@]32CCCc3sc(N)c(C#N)c32)n1)[C@@H]1CCCN1C [II-168] |
| 2280 | CC(C)N1CCCN(c2cc(-n3ccnc3)nc(-c3noc4c3CCC[C@@]43CCCc4sc(N)c(C#N)c43)n2)[C@@H](C)C1 [II-169] |
| 942 | CC(C)N1CCCN(c2cc(-c3ccn(C)n3)nc(-c3noc4c3CCC[C@@]43CCCc4sc(N)c(C#N)c43)n2)[C@@H](C)C1 [II-170] |
| 1460 | C[C@H](Oc1cc(N2C[C@H](C)N(C)[C@@H](C)C2)nc(-c2noc3c2CCC[C@@]32CCCc3sc(N)c(C#N)c32)n1)[C@@H]1CCCN1C [II-173] |
| 948 | CC(=O)N1CCN(c2cc(O[C@@H](C)[C@@H]3CCCN3C)nc(-c3noc4c3CCC[C@@]43CCCc4sc(N)c(C#N)c43)n2)CC12CC2 [II-178] |

| Structure (SMILES) | IC50 [nM] |
| --- | --- |
| C[C@H](Oc1cc(N2CC3COCC(C2)N3)nc(-c2noc3c2CCC[C@@]32CCCc3sc(N)c(C#N)c32)n1)[C@@H]1CCCN1C [II-160] | 3190 |

Reference: patent US20240174690A1, “ANNULATED 2-AMINO-3-CYANO THIOPHENES AND DERIVATIVES FOR THE TREATMENT OF CANCER” (BOEHRINGER INGELHEIM INTERNATIONAL GMBH, priority 2021, published 2024)
